We go through one compound from patent publication US6855872B2 (priority 1997, dated 2005).

In test [1] the test system is protoplasts from wild-type tobacco plants. It counts as cell-based, Nicotiana tabacum.
Test [2] has as its system protoplasts from transgenic plants with the rice Rpl3 gene (C3 lines). It counts as cell-based, Nicotiana tabacum.
The test system of test [3] is protoplasts of the genotype Rpl3:c258 (C4 lines). Type of test: cell-based, Nicotiana tabacum.
Test [4] concerns wild type non-transformed N. debneyi cell suspension (N.d.wt). It counts as cell-based.
The subject of test [5] is cell suspensions of pCARPL3 plants (N.d.pCARPL3). Type of test: cell-based, N. debneyi.
The test system of test [6] is cells of transgenic line expressing the rice Rpl3c:258 (N.dpCARPLC4). It counts as cell-based, N. debneyi.
In test [7] the test system is leaf explants of wild-type plants. It counts as cell-based.
The subject of test [8] is leaf explants of pCAPRL3 plants. Type of test: cell-based.
For test [9], the system named is leaf explants from pCARPLC4 plants. Type of test: cell-based.
In test [10] the test system is maize embryogenic cultures (A188xB73) transformed with pActRPL3. It counts as cell-based.
Test [11] deals with maize embryogenic cultures (A188xB73) transformed with pActRPLC4. Type of test: cell-based.
Test [12] relates to wheat anther-derived callus tissue. To be noted: cited from earlier work.
Another test relates to mature maize embryos. To be noted: cited from earlier work.

With `CC1=C[C@H]2O[C@@H]3[C@H](O)C[C@](C)([C@@]2(CO)[C@H](O)C1=O)[C@]31CO1` [DON, deoxynivalenol], the “susceptibility of wild-type plants (protoplasts) to DON” value in [1] is listed as “susceptible”. Also, the “micro colony formation from protoplasts” value in [2] was “did not often develop into calli”. For the same compound, in [3], the “micro colony formation from protoplasts” value was “capable of transfer to regeneration medium” and the viability of protoplasts entry was “not significantly affected”. Moreover, the “weight gain of cells after 20 days in culture” value (shortened to “weight gain of cells”) in [4] is “inhibited”. Moreover, in test [5], the “packed cell volume and fresh weight gain of cell suspensions” value is “sufficient to inhibit”; the “weight gain of cells” value was “inhibited”. Moreover, in test [6], the “impact on packed cell volume or cell fresh weight gain” value is listed as “less serious impact” and the “weight gain of cells” value is reported as “not inhibited as much”. Further, in test [7], the “formation of callus and shoots on leaf explants” value was “inhibiting the formation of callus and shoots”. For the same compound, in test [8], the “formation of callus and shoots on leaf explants” value is “inhibiting the formation of callus and shoots”. Besides, in test [9], the “shoot regeneration on leaf explants” value is given as “capable of shoot regeneration”. Also, the “callus growth, % of the control” value in [10] is listed as 15%. Further, in test [11], the “DON required to reduce growth to 15% of control values” was determined as 50 µg/mL; the “callus growth, % of the control” value stood at 63%; the “increase in tolerance to DON by the RPLC4 callus” value worked out at 10 fold. For the same compound, the “growth of wheat anther-derived callus tissue” value in [12] was “reduces growth”. The “DON concentration sufficient to significantly inhibit growth” value in the test on mature maize embryos is 10 µg/mL.
